# From patent US20260049289A1, “ARRAY PLATFORM FOR HIGH-THROUGHPUT ORGANOID PROFILING” (CZ Biohub SF, LLC, priority 2022, published 2026)
# Tested on: patient-derived pancreatic ductal adenocarcinoma (PDAC) organoids
# Assay: Drug testing of patient-derived PDAC organoids treated with gemcitabine in the microwell platform
# Type: cell-based, human
# Conditions: PDAC organoids derived from the same parental cells, imaging (FIG. 6)
# Text: FIG. 6: Representative drug evaluation of patient-derived pancreatic ductal adenocarcinoma organoids treated with gemcitabine. Upper panel, organoids sensitive to gemcitabine; lower panel, organoids resistance to gemcitabine. Organoids are a desirable choice for drug screening studies because they retain 3D cellular architecture and therefore recapitulate physiological conditions to a higher degree than traditional cell lines. […] Organoids sensitive to gemcitabine (FIG. 6, top panel) were growth-stunted and/or dissociated compared to resistant organoids (FIG. 6, bottom panel). Whole organoids that display resistance to a drug, can be retrieved and further evaluated, e.g., for genomic changes and/or changes in RNA expression profiles, to evaluate mechanisms of drug resistance, for example, innate versus acquired resistance.
structure (smiles),measurement,value
Nc1ccn([C@@H]2O[C@H](CO)[C@@H](O)C2(F)F)c(=O)n1 [gemcitabine],"observed drug response of single organoids (growth, dissociation)",heterogeneity in observed drug response
